# Counter-ions that a name gives are not always drawn.
# Tested on: mice
# Experiment: SmartCube in vivo neuropharmacological behavioral assay
# Details: for minimal effective dose: Mus musculus, ip, dose having 50% or more total activity in SmartCube, i.p., read-out: MED (minimal effective dose); for AD: antidepressant, percent probability / AG: analgesic, percent probability / AP: antipsychotic, percent probability / AX: anxiolytic, percent probability / CE: cognitive enhancer, percent probability / HA: hallucinogenic, percent probability / MS: mood stabilizer, percent probability / PS, percent probability / SD: sedative hypnotic, percent probability / SE: side effects, percent probability / UN: uncharacterized CNS activity, percent probability / XG: anxiogenic, percent probability: SmartCube, i.p. 15 min before test, at the MED
# Protocol: The compounds were evaluated for their CNS related properties (e.g., the treatment, prevention or diagnosis of CNS or CNS-related disorders and/or amelioration of symptoms) using neuropharmacological screening methods described in S. L. Roberts et al., Front. Neurosci. 2011, 5:103 (hereinafter referred to as “Roberts,” the contents of which are incorporated herein by reference in their entirety).
# According to Roberts, intact systems are useful in detecting improvement in disease-relevant endpoints, because psychiatric diseases generally result from disorders of cell-cell communication or circuitry. The endpoints are typically behavioral in nature, often requiring human observation and interpretation. In order to test multiple compounds for behavioral effects relevant to neurological and psychiatric diseases and disorders, PsychoGenics, Inc. (Paramus, N.J. “PGI”) developed SmartCube®, an automated system in which behaviors of compound-treated mice are captured by digital video and analyzed with computer algorithms to facilitate testing of multiple compounds for behavioral effects relevant to psychiatric disease. (D. Brunner et al., Drug Discov. Today 2002, 7:S107-S112; Alexandrov et al., Eur. J. Pharmacol. 2015, 753:127-134; the contents of each of which are incorporated herein by reference in their entirety).
# The SmartCube® system is described in Example 2.2 of U.S. Pat. No. 9,758,529 and Example 289 of WIPO Publication No. WO2018/023070, the contents of each of which are incorporated herein by reference in their entirety.
# According to the present disclosure, compounds identified may be evaluated using the SmartCube® system. The results of such analysis correlate certain patterns or combinations of behaviors to CNS effects along a percent probability scale of 0-100 where zero (O) reflects the limit of quantitation (LOQ).
# The compounds of the present disclosure were evaluated for their CNS related properties (e.g., the treatment, prevention or diagnosis of CNS or CNS-related disorders and/or amelioration of symptoms) using neuropharmacological screening methods described in S. L. Roberts et al., Front. Neurosci. 2011, 5:103 (hereinafter referred to as “Roberts,” the contents of which are incorporated herein by reference in their entirety).
# The SmartCube® system described herein was utilized to compare the behavioral signature of a test compound to a database of behavioral signatures obtained using a large set of diverse reference compounds (including but not limited to antipsychotics, anxiolytics, antidepressants and bipolar disorder medicine), thereby predicting the neuropharmacological effects of a test compound by similarity to major classes of compounds. It produces an activity signature indicating the probability that the activity of the test compound at the administered dose matches a given class of neuropharmacological agents. The test compound is simultaneously compared against multiple classes of agents; thus, a separate probability is generated for each behavioral effect measured (such as but not limited to anxiolytic activity and analgesic activity).
# The compounds of the present disclosure were dissolved in a mixture of Pharmasolve™ (N-methyl-2-pyrrolidone (NMP)) and were injected i.p. 15 min. before the behavioral test. For each compound, injections were administered at different dose levels (e.g., 0.3, 1, 3, 10 and 30 mg per kg (mpk)). A compound's minimal effective dose (MED; see Table 3) is a measure of the compound's potency. The MED was defined as the dose (in mpk) having 50% or more total activity in SmartCube®. For each behavioral effect measured, results at the MED are presented. CNS activities of the compounds were recorded (see Table 2). In Table 1, a key to the percent probabilities (probability×100) for each behavioral effect (“X”) are defined provided, where LOQ is the limit of quantification.
SMILES,minimal effective dose [mg/kg],"AD: antidepressant, percent probability","AG: analgesic, percent probability","AP: antipsychotic, percent probability","AX: anxiolytic, percent probability","CE: cognitive enhancer, percent probability","HA: hallucinogenic, percent probability","MS: mood stabilizer, percent probability","PS, percent probability","SD: sedative hypnotic, percent probability","SE: side effects, percent probability","UN: uncharacterized CNS activity, percent probability","XG: anxiogenic, percent probability"
"CC/C=C/CN1C2CCC1c1ccccc12 [Compound 10, 11-[(2E)-Pent-2-en-1-yl]-11-azatricyclo[6.2.1.0^2,7]undeca-2,4,6-triene hydrochloride]",> 30,+ (LOQ ≤ X < 5%),+ (LOQ ≤ X < 5%),+ (LOQ ≤ X < 5%),++ (5% ≤ X < 25%),+ (LOQ ≤ X < 5%),+ (LOQ ≤ X < 5%),+ (LOQ ≤ X < 5%),+ (LOQ ≤ X < 5%),+ (LOQ ≤ X < 5%),+ (LOQ ≤ X < 5%),+ (LOQ ≤ X < 5%),+ (LOQ ≤ X < 5%)
"CC(C)N1C2CCC1c1ccccc12 [Compound 42, 11-(Propan-2-yl)-11-azatricyclo[6.2.1.0^2,7]undeca-2,4,6-triene hydrochloride]",10 to 30,++ (5% ≤ X < 25%),++ (5% ≤ X < 25%),+ (LOQ ≤ X < 5%),+ (LOQ ≤ X < 5%),+ (LOQ ≤ X < 5%),++ (5% ≤ X < 25%),+ (LOQ ≤ X < 5%),+++ (25% ≤ X < 50%),+ (LOQ ≤ X < 5%),+ (LOQ ≤ X < 5%),++ (5% ≤ X < 25%),+ (LOQ ≤ X < 5%)
"CC1=C(C)C2NC1c1ccccc12 [Compound 59, 9,10-Dimethyl-11-azatricyclo[6.2.1.0^2,7]undeca-2,4,6,9-tetraene hydrochloride]",10 to 30,++++ (50% ≤ X <1 00%),+ (LOQ ≤ X < 5%),+ (LOQ ≤ X < 5%),++ (5% ≤ X < 25%),++ (5% ≤ X < 25%),++ (5% ≤ X < 25%),+ (LOQ ≤ X < 5%),+ (LOQ ≤ X < 5%),+ (LOQ ≤ X < 5%),+ (LOQ ≤ X < 5%),+ (LOQ ≤ X < 5%),+ (LOQ ≤ X < 5%)
"CC1CC2c3ccccc3C1N2C(C)C (stereo not drawn) [Compound 51, 9-Methyl-11-(propan-2-yl)-11-azatricyclo[6.2.1.0^2,7]undeca-2,4,6-tri ene hydrochloride]",1 to 10,++++ (50% ≤ X <1 00%),+ (LOQ ≤ X < 5%),+ (LOQ ≤ X < 5%),++ (5% ≤ X < 25%),+ (LOQ ≤ X < 5%),++ (5% ≤ X < 25%),+ (LOQ ≤ X < 5%),++ (5% ≤ X < 25%),+ (LOQ ≤ X < 5%),+ (LOQ ≤ X < 5%),+ (LOQ ≤ X < 5%),+ (LOQ ≤ X < 5%)
"CCC(C)N1C2C=CC1c1ccccc12 (stereo not drawn) [Compound 55, 11-(Butan-2-yl)-11-azatricyclo[6.2.1.0^2,7]undeca-2,4,6,9-tetraene hydrochloride]",10 to 30,+++ (25% ≤ X < 50%),+ (LOQ ≤ X < 5%),+ (LOQ ≤ X < 5%),++ (5% ≤ X < 25%),+ (LOQ ≤ X < 5%),+ (LOQ ≤ X < 5%),+ (LOQ ≤ X < 5%),++ (5% ≤ X < 25%),+ (LOQ ≤ X < 5%),+ (LOQ ≤ X < 5%),+++ (25% ≤ X < 50%),+ (LOQ ≤ X < 5%)
"c1ccc2c(c1)C1CCC2N1 [Compound 41, hydrochloride]",10 to 30,+ (LOQ ≤ X < 5%),++ (5% ≤ X < 25%),+ (LOQ ≤ X < 5%),++ (5% ≤ X < 25%),++ (5% ≤ X < 25%),+ (LOQ ≤ X < 5%),+ (LOQ ≤ X < 5%),+ (LOQ ≤ X < 5%),+ (LOQ ≤ X < 5%),+ (LOQ ≤ X < 5%),++ (5% ≤ X < 25%),+ (LOQ ≤ X < 5%)
"CC1C2NC(c3ccccc32)C1C (stereo not drawn) [Compound 48, 9,10-Dimethyl-11-azatricyclo[6.2.1.0^2,7]undeca-2,4,6-triene hydrochloride]",10 to 30,++ (5% ≤ X < 25%),+ (LOQ ≤ X < 5%),+ (LOQ ≤ X < 5%),++ (5% ≤ X < 25%),++++ (50% ≤ X <1 00%),++ (5% ≤ X < 25%),+ (LOQ ≤ X < 5%),++ (5% ≤ X < 25%),+ (LOQ ≤ X < 5%),+ (LOQ ≤ X < 5%),+ (LOQ ≤ X < 5%),+ (LOQ ≤ X < 5%)
"CC1=CC2c3ccccc3C1N2C(C)C (stereo not drawn) [Compound 62, 9-Methyl-11-(propan-2-yl)-11-azatricyclo[6.2.1.0^2,7]undeca-2,4,6,9-tetraene hydrochloride]",1 to 10,++ (5% ≤ X < 25%),++ (5% ≤ X < 25%),+ (LOQ ≤ X < 5%),++ (5% ≤ X < 25%),+ (LOQ ≤ X < 5%),+ (LOQ ≤ X < 5%),+ (LOQ ≤ X < 5%),+ (LOQ ≤ X < 5%),+ (LOQ ≤ X < 5%),+ (LOQ ≤ X < 5%),++ (5% ≤ X < 25%),+ (LOQ ≤ X < 5%)
"C1=CC2NC1c1ccccc12 [Compound 52, 11-Azatricyclo[6.2.1.0^2,7]undeca-2,4,6,9-tetraene hydrochloride]",> 30,+ (LOQ ≤ X < 5%),+ (LOQ ≤ X < 5%),+ (LOQ ≤ X < 5%),+ (LOQ ≤ X < 5%),+ (LOQ ≤ X < 5%),+ (LOQ ≤ X < 5%),+ (LOQ ≤ X < 5%),+ (LOQ ≤ X < 5%),+ (LOQ ≤ X < 5%),+ (LOQ ≤ X < 5%),+ (LOQ ≤ X < 5%),+ (LOQ ≤ X < 5%)

# Source: patent US20230109801A1 (Blue Oak Pharmaceuticals, Inc., priority 2020, published 2023)
